Tests used:
[1] = Rat brain and plasma PK; type: in vivo; conditions: 10 mg/kg oral, rats
[2] = system: tele-methylhistamine (tMeHA); test: Ex vivo PD determination: brain tele-methylhistamine time course in rats; parameters: species or system rat; conditions: 10 mg/kg oral
Method: Male Sprague-Dawley rats (Shanghai SLAC Laboratory Animal Co. LTD) of 6-7 weeks age were used. Animals were housed in a temperature and humidity-controlled environment on a 12 h light/dark. All animals had free access to food and water. All procedures were approved by Institutional Animal Care and Use Committee of ChemPartner Co., LTD (IACUC Protocol NO: A998HL0002).
For bioanalysis of brain tissue tele-methylhistamine samples were further processed.
One aliquot of the stock solution was diluted using ethanol/phosphate buffer pH 7.4 (85:15, v/v) to achieve a series working solutions. The brain homogenate was centrifuged at 12000 rpm for 5 min at 4° C. Then 10 μL supernatant of the brain homogenate sample was added to 60 μL internal standard (d3-1-methyl-histamine, 20 ng/mL). The mixture was vortexed for 2 min and centrifuged at 12000 rpm for 5 min at 4° C. Finally, 60 μL supernatant was added and 3 μL supernatant was injected into LC-MS/MS for analysis (Agilent 6410, triple quadrupole mass spectrometer, Mobile phase A: H2O— 0.1% NH3, Mobile phase B: methanol— 0.1% NH3, Column: Ultimate XB-C18 (2.1×50 mm, 5 μm, Flow rate: 0.45 mL/min, temperature: 40° C.).

[3] = system: H3 receptor; test: Ex vivo receptor occupancy assay in rat frontal cortex; conditions: rats; for RO: 10 mg/kg oral
Method: Male Sprague-Dawley rats (from Shanghai SLAC Laboratory Animal CO. LTD) at the age of 5-6 weeks were used. The animals were housed in a temperature and humidity-controlled environment on a 12 h light/dark cycle with food and water available ad libitum. All the procedures were approved by Institutional Animal Care and Use Committee of Chempartner Co., LTD (IACUC Protocol NO: A998HL0076).
Compounds were dissolved in 50 mM citrate buffer (pH 3.5), or saline. The compound was then diluted stepwise to the final concentration with vehicle. Animals were dosed by p.o. or i.v. in 1 ml/kg bodyweight.
At each time point, rats were decapitated immediately. Intact brain was removed, immersed and washed in pre-cooled saline. After drying with filter paper, frontal cortex was dissected with a double-blade with an about 30° angle starting at ⅓ of anterior rat brain (weight of most brain tissues around 70±10 mg). Brain tissue was transferred into a pre-weighed tube with homogenizer beads. The tubes were weighed again and the tissue net weight was recorded. Tissue sampling was done on ice with intervals of 1 min. Then, 50 mM HEPES (Gibco® by Life Technologies) buffer were added (equivalent to 3.75 μl/mg tissue weight) followed by homogenization (frequency 30/sec for 20 sec, TissueLyser, Quiagen).
The crude homogenate samples of rat frontal cortex were used to measure H3 receptor binding as described above with [^3H]—N-α-methylhistamine as radioligand. The protein concentration of each sample was determined by Pierce BCA Protein Assay Kit (Thermo).
The cortical homogenate was added to a 96-well plate containing [^3H]—N-α-methylhistamine (0.1 nM), in a volume of 0.2 ml (final protein concentration 4 μg/μl), incubated at 28° C. for 15 min and the reaction was stopped by rapid filtration using a filtration plate (Millipore multiscreen GF/B plate). The filters were washed three times with ice-cold wash buffer (50 mM Tris, pH 7.5) and 250 μl of Microscint-40 were added followed by determination of the bound radiolabel with a Wallac Microbeta Trilux 2450 (Perkin Elmer). Nonspecific binding was determined in the presence of 10 μM thioperamide. Each data point was obtained from a total of at least four animals. The inhibition of specific [^3H]NAMH binding, calculated as relative to vehicle-treated samples, was determined to provide an indication of receptor occupancy by the compound. The dose-dependent % RO and time course were analyzed using GraphPad Prism. The dose response was fit using GraphPad Prism: log(inhibitor) vs. response with variable slope.

Cn1nc(N2CCC(OC(=O)N3CCN(C4CCC4)CC3)CC2)ccc1=O [Compound (I), 1-(1-methyl-6-oxo-1,6-dihydropyridazin-3-yl)piperidin-4-yl 4-cyclobutylpiperazine-1-carboxylate]
total brain exposure [1]: intermediate | brain exposure ([1]; 8 h time point): close to detection limit | concentration at 4 h ([1]; male, Sprague-Dawley, rat, brain, 4 h time point, read-out: brain exposure): 21 ng/g | time at which tMeHA increase starts [2]: 30 min | time of tMeHA peak [2]: 2 h | tMeHA level at 8 h ([2]; 8 h): stayed slightly elevated | effect on tMeHA levels ([2]; brain): increased | duration of histamine release after compound administration ([2]; deconvolution of the PD data): about 2 h | RO ([3]; 1 h time point (initial RO)): 95% | RO ([3]; 4 h): 50% | RO ([3]; 4 h, listed as LML134): 39% | RO ([3]; 8 h): 0% | RO ([3]; 8 h, listed as LML134): almost not RO was detectable | dose that resulted in H3 receptor occupancy of 80-90% ([3]; oral dosing, 1 h after compound administration): 10 mg/kg

Reference: patent US20210379062A1, “The use of a H3R inverse agonist for the treatment of excessive daytime sleepiness associated with parkinson's disease (PD)” (Novartis AG, priority 2018, published 2021)
